The NIST ThermoML archive (doi:10.1021/je700598v)
Numbers after ± are expanded uncertainties.

Test: cn = amount concentration of the nth substance listed, in mol/dm3
Conditions: 101 kPa, Liquid; for viscosity: Capillary tube (Ostwald / Ubbelohde) method; for mass density: Pycnometric method; for binary diffusion coefficient: Taylor dispersion method

OC[C@H]1O[C@@H]2O[C@H]3[C@H](O)[C@@H](O)[C@@H](O[C@H]4[C@H](O)[C@@H](O)[C@@H](O[C@H]5[C@H](O)[C@@H](O)[C@@H](O[C@H]6[C@H](O)[C@@H](O)[C@@H](O[C@H]7[C@H](O)[C@@H](O)[C@@H](O[C@H]8[C@H](O)[C@@H](O)[C@@H](O[C@H]9[C@H](O)[C@@H](O)[C@@H](O[C@H]1[C@H](O)[C@H]2O)O[C@@H]9CO)O[C@@H]8CO)O[C@@H]7CO)O[C@@H]6CO)O[C@@H]5CO)O[C@@H]4CO)O[C@@H]3CO [γ-cyclodextrin] + O
Conditions | binary diffusion coefficient, 298.15 K [m2/s] | binary diffusion coefficient, 310.15 K [m2/s] | mass density, 298.15 K [kg/m3] | mass density, 310.15 K [kg/m3] | viscosity, 298.15 K [mPa·s] | viscosity, 310.15 K [mPa·s]
c1 = 0.00186 | – | – | 896.2 ± 0.6 | 697 ± 0.54 | 0.9975 ± 0.0079 | 0.9938 ± 0.0079
c1 = 0.002 | 3.57e-10 | 4.8e-10 | – | – | – | –
c1 = 0.004979 | – | – | 906.1 ± 0.6 | 708.2 ± 0.55 | 0.999 ± 0.0079 | 0.9949 ± 0.0079
c1 = 0.005 | 3.55e-10 | 4.7e-10 | – | – | – | –
c1 = 0.007923 | – | – | 919.2 ± 0.61 | 717.2 ± 0.57 | 1.001 ± 0.008 | 0.997 ± 0.0079
c1 = 0.008 | 3.53e-10 | 4.61e-10 | – | – | – | –
c1 = 0.009981 | – | – | 927 ± 0.62 | 723.4 ± 0.56 | 1.002 ± 0.008 | 0.9984 ± 0.008
c1 = 0.01 | 3.52e-10 | 4.53e-10 | – | – | – | –
